The values that follow come from patent EP0337600A2, “Benzoylurea derivative, process for producing the same, insecticide containing the same, reaction intermediate of the same and process for producing the intermediate” (priority 1988, dated 1989).

What all share (type): in vivo
For data set [1], the system named is common mosquito (Culex pipiens pallens). Put plainly: Inhibition of adult emergence of common mosquito larvae in aqueous dilute emulsion (Test Example 1). The conditions noted are these: 3.5 ppm (emulsifiable concentrate diluted 28,600 times with water), 20 last-instar larvae in 100 ml, bred until emergence, repeated twice. How it is done:
The emulsifiable concentrate of each of the following present compounds prepared according to Formulation Example 1 was diluted 28,600 times with water (corresponding to 3.5 ppm). And 100 ml of each aqueous dilute emulsion thus obtained were charged in a 180-ml polyethylene cup. Then 20 last-instar larvae of common mosquito (Culex pipiens pallens) were released therein. The larvae were bred on baits until emergence to obtain percentage of inhibition of adult emergence. The test was repeated twice.

Data set [2] relates to tobacco cutworm (Spodoptera litura). Kind of data set: Mortality of tobacco cutworm larvae on sprayed cabbage (Test Example 2). The conditions noted are these: for mortality at 0.5 ppm: Spodoptera litura, 120 h; for Mortality (%): 0.5 ppm (diluted 200,000 times with water), 30 ml sprayed onto cabbage, 5 fourth-instar larvae, after 5 days, repeated three times. The protocol:
The emulsifiable concentrate of each of the following present compounds and controls prepared according to Formulation Example 1 was diluted 200,000 times with water (corresponding to 0.5 ppm). And 30 ml of each aqueous dilute solution thus obtained were sprayed onto cabbage cultivated in a plastic cup on a turn table, which cabbage had been planted one month before. After air-drying, 5 fourth-instar larvae of tobacco cutworm (Spodoptera litura) were released thereon, and after 5 days, the dead and alive were counted for mortality. This test was repeated three times.

Data set [3] concerns diamond-back moth (Plutella xylostella) (field-strain). Put plainly: Hatching of diamond-back moth eggs laid on dipped germinated Japanese radish (Test Example 3). The conditions noted are these: 1.25 ppm (diluted 80,000 times with water); radish dipped 30 seconds before egg laying; hatching counted after 5 days; repeated twice; four grades. How it is done: Two pieces of germinated Japanese radish which had been sowed 5 or 6 days before were dipped for 30 seconds in the aqueous dilute solution. After air-drying for about 1 hour, these germinated radish were put in a cage wherein a large number of adult diamond-back moth (Plutella xylostella) (field-strain) of an age of 1-3 days after the emergence were released, and they were allowed to lay eggs. When the number of eggs per germinated radish reached 100 to 150, the radish were taken out of the cage and each two pieces thereof were put in a polyethylene cup of 5.5 cm in diameter. After 5 days, the number of hatching was counted to obtain percentage of hatching. The test was repeated twice.

The inhibition is the drop in the measured response relative to a control, in per cent. A low value points to a response near the control. As a reminder, the mortality is the percentage killed. Read a low mortality as more survivors. In turn, `O=C(NC(=O)c1ccccc1Cl)Nc1ccc(OC(F)(F)C(F)OC(F)(F)C(F)(F)C(F)(F)F)cc1F` (stereo not shown) [(10)] yielded an inhibition at 3.5 ppm in data set [1] of 100%. In data set [2], this molecule showed a mortality at 0.5 ppm of 100%. Besides, the Percentage of hatching entry in data set [3] is listed as “A (A: 0%)”.

On to `O=C(NC(=O)c1ccccc1Cl)Nc1ccc(OC(F)(F)C(Cl)Cl)cc1F` [(3)], for which the inhibition at 3.5 ppm in data set [1] was 100%. Besides, in data set [2], the mortality at 0.5 ppm was 100%. Further, the Percentage of hatching entry in data set [3] is “A (A: 0%)”.

In turn, `O=C(NC(=O)c1c(F)cccc1F)Nc1ccc(OC(F)(F)C(F)OC(F)(F)F)cc1F` (stereo not shown) [(11)] yielded an inhibition at 3.5 ppm in data set [1] of 100%. The same molecule showed a mortality at 0.5 ppm in data set [2] of 100%. Further, in data set [3], the Percentage of hatching result was “A (A: 0%)”.

With `O=C(NC(=O)c1ccccc1Cl)Nc1ccc(OC(F)(F)F)cc1` [(B), reference compound], the “Mortality (%)” value in data set [2] is on record as 0%. Also, the Percentage of hatching result in data set [3] is listed as “D (D: 21% or more)”.

As for `O=C(NC(=O)c1c(F)cccc1F)Nc1ccc(OC(F)(F)C(F)Cl)cc1F` (stereo not shown) [(5)], in data set [1], the inhibition at 3.5 ppm is 100%. This molecule had a mortality at 0.5 ppm in data set [2] of 93%. Further, in data set [3], the Percentage of hatching entry is “A (A: 0%)”.

`O=C(NC(=O)c1c(F)cccc1F)Nc1ccc(OC(F)(F)C(Cl)Cl)cc1F` [(2)] displayed an inhibition at 3.5 ppm in data set [1] of 100%. Besides, in data set [2], the mortality at 0.5 ppm was found to be 93%. In data set [3], the Percentage of hatching entry was “A (A: 0%)”.

`O=C(NC(=O)c1ccccc1Cl)Nc1ccc(OC(F)(F)C(F)C(F)(F)F)cc1F` (stereo not shown) [(8)] had an inhibition at 3.5 ppm in data set [1] of 100%. This molecule also gave a mortality at 0.5 ppm in data set [2] of 100%. Besides, the Percentage of hatching result in data set [3] is “A (A: 0%)”.

Consider `O=C(NC(=O)c1c(F)cccc1F)Nc1ccc(OC(F)(F)C(F)(F)Br)cc1F` [(1)], for which, in data set [1], the inhibition at 3.5 ppm is 100%. Also, the mortality at 0.5 ppm in data set [2] turned out to be 100%. The Percentage of hatching result in data set [3] is listed as “A (A: 0%)”.

In data set [1], `O=C(NC(=O)c1c(F)cccc1F)Nc1ccc(OC(F)(F)C(F)C(F)(F)F)cc1F` (stereo not shown) [(7)] displayed an inhibition at 3.5 ppm of 100%. The mortality at 0.5 ppm in data set [2] worked out at 100%. In addition, the Percentage of hatching entry in data set [3] is “A (A: 0%)”.

`O=C(NC(=O)c1ccccc1Cl)Nc1ccc(OC(F)(F)C(F)Cl)cc1F` (stereo not shown) [(6)] gave an inhibition at 3.5 ppm in data set [1] of 100%. Also, in data set [2], the mortality at 0.5 ppm turned out to be 100%. Moreover, the Percentage of hatching entry in data set [3] is recorded as “A (A: 0%)”.

With `O=C(NC(=O)c1ccccc1Cl)Nc1ccc(OC(F)(F)C(F)OC(F)(F)F)cc1F` (stereo not shown) [(12)], the inhibition at 3.5 ppm in data set [1] was found to be 100%. Besides, the mortality at 0.5 ppm in data set [2] turned out to be 100%. In addition, the Percentage of hatching entry in data set [3] was “A (A: 0%)”.

As for `O=C(NC(=O)c1c(F)cccc1F)Nc1ccc(OC(F)(F)C(F)OC(F)(F)C(F)(F)C(F)(F)F)cc1F` (stereo not shown) [(9)], the inhibition at 3.5 ppm in data set [1] was determined as 100%. The molecule further gave a mortality at 0.5 ppm in data set [2] of 100%. In data set [3], the Percentage of hatching result was “A (A: 0%)”.

Turning to `O=C(NC(=O)c1c(F)cccc1F)Nc1ccc(OC(F)(F)C(Br)Br)cc1F` [(4)], the inhibition at 3.5 ppm in data set [1] amounted to 100%. In addition, the mortality at 0.5 ppm in data set [2] amounted to 100%. In data set [3], the Percentage of hatching result is “A (A: 0%)”.

As for `O=C(NC(=O)c1c(F)cccc1F)Nc1ccc(Cl)cc1` [(A), reference compound], the “Mortality (%)” value in data set [2] is on record as 13%. Besides, the Percentage of hatching result in data set [3] is listed as “D (D: 21% or more)”.
